Data from the NIST ThermoML archive (doi:10.1021/je900105g).
Several values for one entry are separate records, joined by “and”; a condition that tells them apart may be missing. Equal entries are not always repeated. ± gives the expanded uncertainty stated by the source.

Conditions: Liquid, Buoyancy - hydrostatic balance with magnetic suspension - one sinker

With Cc1ccccc1 [toluene] the mass density (293.14 K, 580 kPa) was 867.3 ± 0.12 kg/m3, the mass density (293.14 K, 2080 kPa) was 868.44 ± 0.12 kg/m3 and the mass density (293.14 K, 2100 kPa) was 868.49 ± 0.12 kg/m3. For the same compound, the mass density (293.14 K, 4080 kPa) was 869.92 ± 0.12 kg/m3, the mass density (293.14 K, 6080 kPa) was 871.41 ± 0.12 kg/m3 and the mass density (293.14 K, 8080 kPa) was 872.84 ± 0.12 kg/m3. The mass density (293.14 K, 10080 kPa) was 874.27 ± 0.12 kg/m3, the mass density (293.14 K, 10110 kPa) was 874.35 ± 0.12 kg/m3 and the mass density (293.14 K, 15090 kPa) was 877.74 ± 0.12 kg/m3. The mass density (293.14 K, 15110 kPa) was 877.83 ± 0.12 kg/m3, the mass density (293.14 K, 20090 kPa) was 881.09 ± 0.12 kg/m3 and the mass density (293.14 K, 20110 kPa) was 881.18 ± 0.12 kg/m3. It also gave a mass density (293.14 K, 25090 kPa) of 884.33 ± 0.12 kg/m3, a mass density (293.14 K, 25120 kPa) of 884.42 ± 0.12 kg/m3 and a mass density (293.14 K, 30090 kPa) of 887.47 ± 0.12 kg/m3. It also gave a mass density (293.14 K, 30120 kPa) of 887.56 ± 0.12 kg/m3, a mass density (293.15 K, 2080 kPa) of 868.48 ± 0.12 kg/m3 and a mass density (293.15 K, 4080 kPa) of 869.98 ± 0.12 kg/m3. It also gave a mass density (293.15 K, 6080 kPa) of 871.45 ± 0.12 kg/m3, a mass density (293.15 K, 8080 kPa) of 872.9 ± 0.12 kg/m3 and a mass density (293.15 K, 10080 kPa) of 874.33 ± 0.12 kg/m3. It also gave a mass density (293.15 K, 15080 kPa) of 877.8 ± 0.12 kg/m3, a mass density (293.15 K, 20080 kPa) of 881.15 ± 0.12 kg/m3 and a mass density (293.15 K, 25080 kPa) of 884.39 ± 0.12 kg/m3. The mass density (313.14 K, 590 kPa) was 848.73 ± 0.12 kg/m3, the mass density (313.14 K, 2090 kPa) was 850.02 ± 0.12 kg/m3 and the mass density (313.14 K, 4090 kPa) was 851.7 ± 0.12 kg/m3. The mass density (313.14 K, 6090 kPa) was 853.35 ± 0.12 kg/m3, the mass density (313.14 K, 8090 kPa) was 854.98 ± 0.12 kg/m3 and the mass density (313.14 K, 10090 kPa) was 856.57 ± 0.12 kg/m3. For the same compound, the mass density (313.14 K, 15090 kPa) was 860.44 ± 0.12 kg/m3, the mass density (313.14 K, 20090 kPa) was 864.16 ± 0.12 kg/m3 and the mass density (313.14 K, 25090 kPa) was 867.74 ± 0.12 kg/m3. For the same compound, the mass density (333.14 K, 590 kPa) was 829.86 ± 0.12 kg/m3, the mass density (333.14 K, 2090 kPa) was 831.32 ± 0.12 kg/m3 and the mass density (333.14 K, 4090 kPa) was 833.23 ± 0.12 kg/m3. For the same compound, the mass density (333.14 K, 6090 kPa) was 835.1 ± 0.12 kg/m3, the mass density (333.14 K, 8090 kPa) was 836.93 ± 0.12 kg/m3 and the mass density (333.14 K, 10090 kPa) was 838.73 ± 0.12 kg/m3. For the same compound, the mass density (333.14 K, 15090 kPa) was 843.06 ± 0.12 kg/m3, the mass density (333.14 K, 20090 kPa) was 847.2 ± 0.12 kg/m3 and the mass density (333.14 K, 25090 kPa) was 851.15 ± 0.12 kg/m3. For the same compound, the mass density (333.14 K, 30090 kPa) was 854.96 ± 0.12 kg/m3, the mass density (353.14 K, 2090 kPa) was 812.26 ± 0.11 kg/m3 and the mass density (353.14 K, 4090 kPa) was 814.44 ± 0.11 kg/m3. It also gave a mass density (353.14 K, 6090 kPa) of 816.57 ± 0.11 kg/m3, a mass density (353.14 K, 8090 kPa) of 818.63 ± 0.11 kg/m3 and a mass density (353.14 K, 10090 kPa) of 820.66 ± 0.11 kg/m3. For the same compound, the mass density (353.14 K, 15090 kPa) was 825.54 ± 0.11 kg/m3, the mass density (353.14 K, 20090 kPa) was 830.16 ± 0.12 kg/m3 and the mass density (353.14 K, 25090 kPa) was 834.54 ± 0.12 kg/m3. The mass density (353.14 K, 30090 kPa) was 838.72 ± 0.12 kg/m3, the mass density (373.15 K, 590 kPa) was 790.76 ± 0.11 kg/m3 and the mass density (373.15 K, 2090 kPa) was 792.7 ± 0.11 kg/m3 and 792.76 ± 0.11 kg/m3. For the same compound, the mass density (373.15 K, 4090 kPa) was 795.21 ± 0.11 kg/m3 and 795.27 ± 0.11 kg/m3, the mass density (373.15 K, 6090 kPa) was 797.64 ± 0.11 kg/m3 and 797.7 ± 0.11 kg/m3 and the mass density (373.15 K, 8090 kPa) was 800 ± 0.11 kg/m3 and 800.07 ± 0.11 kg/m3. For the same compound, the mass density (373.15 K, 10090 kPa) was 802.3 ± 0.11 kg/m3 and 802.37 ± 0.11 kg/m3, the mass density (373.15 K, 15080 kPa) was 807.86 ± 0.11 kg/m3 and the mass density (373.15 K, 15090 kPa) was 807.78 ± 0.11 kg/m3. It also gave a mass density (373.15 K, 20080 kPa) of 813.03 ± 0.11 kg/m3, a mass density (373.15 K, 25080 kPa) of 817.91 ± 0.11 kg/m3 and a mass density (373.15 K, 30080 kPa) of 822.54 ± 0.11 kg/m3. It also gave a mass density (373.49 K, 2100 kPa) of 792.38 ± 0.11 kg/m3, a mass density (373.49 K, 10110 kPa) of 802.04 ± 0.11 kg/m3 and a mass density (373.49 K, 15110 kPa) of 807.56 ± 0.11 kg/m3. For the same compound, the mass density (373.49 K, 20120 kPa) was 812.74 ± 0.11 kg/m3, the mass density (373.49 K, 25120 kPa) was 817.63 ± 0.11 kg/m3 and the mass density (373.49 K, 30120 kPa) was 822.28 ± 0.11 kg/m3.
